Test results taken from the NIST ThermoML archive (doi:10.1021/je500696p).
± gives the expanded uncertainty stated by the source.

Legend:
[1] = xn = mol fraction of the nth substance listed; settings: 100 kPa, Liquid, Vibrating tube method, x1 = 1
[2] = excess molar enthalpy (molar enthalpy of mixing); xn = mol fraction of the nth substance listed; settings: 308.15 K, 100 kPa, Liquid, Calvet calorimetry

Work on `CCCO` [propan-1-ol] + CCCC[N+](C)(C)C.O=S(=O)([N-]S(=O)(=O)C(F)(F)F)C(F)(F)F yielded a mass density ([1]; 293.15 K) of 803.6 ± 2.4 kg/m3, a mass density ([1]; 295.15 K) of 802.1 ± 2.4 kg/m3 and a mass density ([1]; 298.15 K) of 799.7 ± 2.4 kg/m3. For the same compound, the mass density ([1]; 303.15 K) was 795.6 ± 2.4 kg/m3, the mass density ([1]; 308.15 K) was 791.6 ± 2.4 kg/m3 and the mass density ([1]; 313.15 K) was 787.5 ± 2.4 kg/m3. It also gave a mass density ([1]; 318.15 K) of 783.4 ± 2.4 kg/m3, a mass density ([1]; 323.15 K) of 779.2 ± 2.3 kg/m3 and a mass density ([1]; 328.15 K) of 774.9 ± 2.3 kg/m3. It also gave a mass density ([1]; 333.15 K) of 770.6 ± 2.3 kg/m3.

Compound `CCO` [ethanol] + CCCC[N+](C)(C)C.O=S(=O)([N-]S(=O)(=O)C(F)(F)F)C(F)(F)F has a mass density ([1]; 293.15 K) of 789.6 ± 3.2 kg/m3, a mass density ([1]; 295.15 K) of 787.9 ± 3.2 kg/m3 and a mass density ([1]; 298.15 K) of 785.3 ± 3.1 kg/m3. The mass density ([1]; 303.15 K) was 781 ± 3.1 kg/m3, the mass density ([1]; 308.15 K) was 776.7 ± 3.1 kg/m3 and the mass density ([1]; 313.15 K) was 772.3 ± 3.1 kg/m3. The mass density ([1]; 318.15 K) was 767.9 ± 3.1 kg/m3, the mass density ([1]; 323.15 K) was 763.5 ± 3.1 kg/m3 and the mass density ([1]; 328.15 K) was 758.9 ± 3 kg/m3. For the same compound, the mass density ([1]; 333.15 K) was 754.4 ± 3 kg/m3.

For `CCCC[N+](C)(C)C.O=S(=O)([N-]S(=O)(=O)C(F)(F)F)C(F)(F)F` [butyltrimethylammonium bis(trifluoromethylsulfonyl)imide] + C[S+](C)[O-], the excess molar enthalpy ([2]; x2 = 0.1288) was -0.027 ± 0.00717 kcal/mol, the excess molar enthalpy ([2]; x2 = 0.2255) was -0.0416 ± 0.00717 kcal/mol and the excess molar enthalpy ([2]; x2 = 0.2609) was -0.0459 ± 0.00717 kcal/mol. It also gave an excess molar enthalpy ([2]; x2 = 0.3095) of -0.0511 ± 0.00717 kcal/mol, an excess molar enthalpy ([2]; x2 = 0.3626) of -0.0593 ± 0.00717 kcal/mol and an excess molar enthalpy ([2]; x2 = 0.4382) of -0.0629 ± 0.00717 kcal/mol. For the same compound, the excess molar enthalpy ([2]; x2 = 0.4941) was -0.0667 ± 0.00717 kcal/mol, the excess molar enthalpy ([2]; x2 = 0.4983) was -0.0638 ± 0.00717 kcal/mol and the excess molar enthalpy ([2]; x2 = 0.5007) was -0.0643 ± 0.00717 kcal/mol. The excess molar enthalpy ([2]; x2 = 0.559) was -0.0684 ± 0.00717 kcal/mol, the excess molar enthalpy ([2]; x2 = 0.5642) was -0.0679 ± 0.00717 kcal/mol and the excess molar enthalpy ([2]; x2 = 0.5646) was -0.0691 ± 0.00717 kcal/mol. For the same compound, the excess molar enthalpy ([2]; x2 = 0.6132) was -0.0629 ± 0.00717 kcal/mol, the excess molar enthalpy ([2]; x2 = 0.6267) was -0.0619 ± 0.00717 kcal/mol and the excess molar enthalpy ([2]; x2 = 0.7533) was -0.0399 ± 0.00717 kcal/mol. The excess molar enthalpy ([2]; x2 = 0.7693) was -0.037 ± 0.00717 kcal/mol and the excess molar enthalpy ([2]; x2 = 0.8684) was -0.0155 ± 0.00717 kcal/mol.

Work on `CN(C)C=O` [dimethylformamide] + CCCC[N+](C)(C)C.O=S(=O)([N-]S(=O)(=O)C(F)(F)F)C(F)(F)F yielded a mass density ([1]; 293.15 K) of 948.7 ± 2.8 kg/m3, a mass density ([1]; 295.15 K) of 946.8 ± 2.8 kg/m3 and a mass density ([1]; 298.15 K) of 943.9 ± 2.8 kg/m3. The mass density ([1]; 303.15 K) was 939.1 ± 2.8 kg/m3, the mass density ([1]; 308.15 K) was 934.4 ± 2.8 kg/m3 and the mass density ([1]; 313.15 K) was 929.6 ± 2.8 kg/m3. For the same compound, the mass density ([1]; 318.15 K) was 924.8 ± 2.8 kg/m3, the mass density ([1]; 323.15 K) was 920 ± 2.8 kg/m3 and the mass density ([1]; 328.15 K) was 915.2 ± 2.7 kg/m3. For the same compound, the mass density ([1]; 333.15 K) was 910.4 ± 2.7 kg/m3.
